From article PMC8011576 (Nature biomedical engineering, 2020)
“Also recorded” adds a separate entry of the source. Where two headings read alike, the source gives them in different places.

Tests used:
[1] = 396±16 μM nicotine infused into Gut Chip lumen for 84 hrs, MS
[2] = Human clinical nicotine PK; assay type: in vivo; conditions: blood, oral, 16 μM
[3] = rodent in vivo; ref Yamazaki et al [35]; cited from earlier work
[4] = test system: first pass human Organ Chips; conditions: nicotine exposure, linked Gut, Liver, Kidney Chips
[5] = test system: CYP3A4; conditions: nicotine exposure, linked chips
[6] = test system: Liver Chip; test: Albumin production in Liver Chip; assay type: cell-based, human; conditions: nicotine exposure, linked chips
[7] = test system: intestinal epithelial cells and endothelial cells in Transwell inserts; conditions: nicotine, same intestinal epithelial and endothelial cells
[8] = cited from earlier work
[9] = test system: Gut Chip; conditions: nicotine in epithelial lumen
[10] = test system: OCT2; test: Western blot of OCT2 in Kidney Chip; assay type: cell-based, human; conditions: cisplatin exposure, Western blot vs controls
[11] = human clinical data, ref Digard et al. [28]

| SMILES | maximum level measured in the AV Reservoir [1] [µM] | half-life [2] [min] | Kidney Renal Clearance, CLR [3] [ml/min/kg.BW] | Liver Intrinsic Clearance, CLint [3] [ml/min/kg.BW] | toxicity (LDH release) in first pass human Organ Chips [4] | CYP3A4 activity in the Gut Chip [5] | albumin production in the Liver Chip [6] | barrier change by TEER in static Transwell inserts [7] | unbound in vivo ([8]; clinical studies) [%] | Liver Intrinsic Clearance, CLint [8, 11] [ml/min/kg.BW] | Liver Secondary Intrinsic Clearance, CLint, sec [8, 11] [ml/min/kq.BW] | intestinal barrier function of the Gut Chip, inulin tracer [9] | intestinal barrier function of the Gut Chip, Cascade Blue tracer ([9]; P < 0.03) | OCT2 expression in the Kidney Chip [10] |
| --- | --- | --- | --- | --- | --- | --- | --- | --- | --- | --- | --- | --- | --- | --- |
| CN1CCC[C@H]1c1cccnc1 [Nicotine, nicotine] | 0.8 ± 0.08 | 10.6 | 5.5 | 300 | did not detect toxicity | remained unchanged | remained unchanged | did not detect a barrier change | 40 | 12.5 | 0.74 | could not detect any effect | significantly increased |  |
| N.N.[Cl][Pt][Cl] [Cisplatin, cisplatin] |  |  |  |  |  |  |  |  |  |  |  |  |  | increased; also recorded: upregulation |
